The source of these data is patent publication US11168102B1, “Bicyclic heteroaryl compounds and uses thereof” (Revolution Medicines, Inc., priority 2019, dated 2021).

Usually Kd stands for the constant that tells how readily two partners part at equilibrium. A higher Kd goes with weaker binding. One may read the IC50 as the point on the concentration scale where inhibition reaches its midpoint.

Chain of SOS1 nucleotide exchange of wild-type KRAS (Q07889 564-1049): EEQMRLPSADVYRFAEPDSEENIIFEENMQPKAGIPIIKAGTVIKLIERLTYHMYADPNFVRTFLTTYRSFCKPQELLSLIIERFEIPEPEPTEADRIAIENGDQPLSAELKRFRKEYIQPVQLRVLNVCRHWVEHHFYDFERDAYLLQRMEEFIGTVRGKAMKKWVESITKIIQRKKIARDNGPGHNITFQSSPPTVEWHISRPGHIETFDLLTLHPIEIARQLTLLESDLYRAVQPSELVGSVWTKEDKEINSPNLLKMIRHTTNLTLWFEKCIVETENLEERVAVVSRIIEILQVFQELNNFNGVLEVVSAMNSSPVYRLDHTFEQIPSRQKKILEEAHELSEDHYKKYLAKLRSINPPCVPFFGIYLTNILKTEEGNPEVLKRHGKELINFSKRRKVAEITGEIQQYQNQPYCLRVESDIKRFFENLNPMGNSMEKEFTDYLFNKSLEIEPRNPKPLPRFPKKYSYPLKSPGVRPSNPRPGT
Chain of SOS1 catalytic domain (residues 564-1049) (Q07889 564-1049): as above

One test addresses SOS1 catalytic domain (residues 564-1049) (Homo sapiens (Human), UniProt Q07889). As to the kind of experiment: Potency assay: binding affinity to SOS1 by Surface Plasmon Resonance (SPR). The conditions noted are these: avi-tagged SOS1 catalytic domain immobilized on sensor chip; 1:1 equilibrium binding fit.
Take `Cc1nc(N[C@H](C)c2cccc(C(F)F)c2F)c2cc(N3CC4(COC4)C3)c(=O)n(C)c2n1` [Example 2-3]: the Kd was found to be 0.089 µM.

For `C[C@@H](Nc1ncnc2c1cc(C1CCN(CCF)CC1)c(=O)n2C)c1cccc(C(F)F)c1F` [Example 8-4], the dissociation constant Kd was 0.0294 µM.

`C[C@@H](Nc1ncnc2c1cc(C1CCS(=O)(=O)CC1)c(=O)n2C)c1cccc(C(F)F)c1F` [Example 8-5] displayed a Kd of 0.0376 µM.

`Cc1nc(N[C@H](C)c2cccc(C(F)F)c2F)c2cc(C3=CCCOC3)c(=O)n(CCO)c2n1` [Example 11-1] had an equilibrium dissociation constant (Kd) of 0.0813 µM.

Another test relates to cellular pERK in PC-9 cells (EGFR Ex19Del). Kind of test: Potency assay: pERK (AlphaLISA SureFire Ultra p-ERK1/2) in PC-9 cells. The test is classed as cell-based. The conditions noted are these: Homo sapiens, PC-9, 1 h, PC-9 cells (EGFR Ex19Del), 1 hour incubation, AlphaLISA SureFire Ultra p-ERK1/2; read-out: SOS1 pERK IC50. (In general: In Alpha technology, singlet oxygen from a donor bead excites a nearby acceptor bead.)
For the molecule `Cc1nc(N[C@H](C)c2cccc(C(F)F)c2F)c2cc(N3CC(F)(F)C3)c(=O)n(C)c2n1` [Example 2-2], the IC50 is 0.427 µM.

Take `Cc1nc(N[C@H](C)c2cccc(C(F)F)c2F)c2cc(N3CC4(COC4)C3)c(=O)n(C)c2n1` [Example 2-3]: the IC50 turned out to be 0.188 µM.

Take `C[C@@H](Nc1ncnc2c1cc(C(=O)N1CC3CC1CO3)c(=O)n2C)c1cccc(C(F)F)c1F` (stereo partly drawn) [Example 26-6]: the IC50 came to 8.83 µM.

For the molecule `COC1(c2cc3c(N[C@H](C)c4cccc(C(F)F)c4F)nc(C)nc3n(C)c2=O)CCN(C(C)=O)CC1` [Example 32-32], the IC50 worked out at 0.00979 µM.

Turning to `C[C@H](Nc1ncnc2c1cc(C1=CCS(=O)(=O)CC1)c(=O)n2C)c1cccc(C(F)(F)C#N)c1F` [Example 41-1], the IC50 was more than 10 µM.

Take `C[C@@H](Nc1ncnc2c1cc(C1=CCS(=O)(=O)CC1)c(=O)n2C)c1cccc(C(F)(F)CN)c1F` [Example 42, 4-(4-{[(1R)-1-[3-(2-amino-1,1-difluoroethyl)-2-fluorophenyl]ethyl]amino}-8-methyl-7-oxo-7H,8H-pyrido[2,3-d]pyrimidin-6-yl)-3,6-dihydro-2H-1λ^6-thiopyran-1,1-dione]: the IC50 is 0.242 µM.

As for `CC(=O)N1CCC(c2cc3c(N[C@H](C)c4cc(C(F)F)cc(C5(F)CNC5)c4)ncnc3n(C)c2=O)CC1` [Example 43, 6-(1-acetyl-4-piperidyl)-4-[[(1R)-1-[3-(difluoromethyl)-5-(3-fluoroazetidin-3-yl)phenyl]ethyl]amino]-8-methyl-pyrido[2,3-d]pyrimidin-7-one], the IC50 was more than 7.29 µM.

Regarding `CC(=O)N1CCC(c2cc3c(N[C@H](C)c4cc(C(F)(F)F)cc(N)n4)ncnc3n(C)c2=O)CC1` [Example 44, 6-(1-acetyl-4-piperidyl)-4-[1-[6-amino-4-(trifluoromethyl)-2-pyridyl]ethylamino]-8-methyl-pyrido[2,3-d]pyrimidin-7-one], the IC50 was 0.179 µM.

Turning to `CC(=O)N1CCC(c2cc3c(N[C@H](C)c4cc(C(F)F)c5cc[nH]c5c4)ncnc3n(C)c2=O)CC1` [Example 48, 6-(1-acetyl-4-piperidyl)-4-[[(1R)-1-[4-(difluoromethyl)-1H-indol-6-yl]ethyl]amino]-8-methyl-pyrido[2,3-d]pyrimidin-7-one], the IC50 was determined as 1.52 µM.

Consider `COn1c(=O)c(C2CCS(=O)(=O)CC2)cc2c(N[C@H](C)c3cccc(C(F)F)c3F)ncnc21` [Example 53, 4-(4-{[(1R)-1-[3-(difluoromethyl)-2-fluorophenyl]ethyl]amino}-8-methoxy-7-oxo-7H,8H-pyrido[2,3-d]pyrimidin-6-yl)-1λ^6-thiane-1,1-dione], for which the IC50 amounted to 0.0367 µM.

As to `CC(=O)N1CCC(c2cc3c(N[C@H](C)c4cccc(C(F)(F)C5CN(C6CC6)CCO5)c4F)ncnc3n(C)c2=O)CC1` (stereo partly drawn) [Example 55, 6-(1-acetyl-4-piperidyl)-4-[[(1R)-1-[3-[(4-cyclopropylmorpholin-2-yl)-difluoro-methyl]-2-fluoro-phenyl]ethyl]amino]-8-methyl-pyrido[2,3-d]pyrimidin-7-one], the IC50 stood at 0.109 µM.

Turning to `C[C@@H](Nc1ncnc2c1cc(C1(F)CCS(=O)(=NC3CC3)CC1)c(=O)n2C)c1cccc(C(F)F)c1F` (stereo partly drawn) [Example 56, 6-((1R,4r)-1-(cyclopropylimino)-4-fluoro-1-oxidohexahydro-1λ^6-thiopyran-4-yl)-4-(((R)-1-(3-(difluoromethyl)-2-fluorophenyl)ethyl)amino)-8-methylpyrido[2,3-d]pyrimidin-7(8H)-one], the IC50 amounted to 0.0572 µM.

For `C[C@@H](Nc1ncnc2c1cc(C1(F)CCS(=O)(=NC3CC3)CC1)c(=O)n2C)c1cccc2c1OCC2(F)F` (stereo partly drawn) [Example 56-4], the IC50 worked out at 0.05 µM.

As to `C[C@@H](Nc1ncnc2c1cc(C1CCS(=O)(=NC3COC3)CC1)c(=O)n2C)c1cccc(C(F)F)c1F` (stereo partly drawn) [Example 60, 4-[[(1R)-1-[3-(difluoromethyl)-2-fluoro-phenyl]ethyl]amino]-8-methyl-6-[1-(oxetan-3-ylimino)-1-oxo-thian-4-yl]pyrido[2,3-d]pyrimidin-7-one], the IC50 was determined as 0.0231 µM.

Consider `COc1ccc(COC2(c3cc4c(N[C@H](C)c5cccc(C(F)F)c5F)ncnc4n(C)c3=O)CC2)cc1` [Example 61, 4-[[(1R)-1-[3-(difluoromethyl)-2-fluoro-phenyl]ethyl]amino]-6-[1-[(4-methoxyphenyl)methoxy]cyclopropyl]-8-methyl-pyrido[2,3-d]pyrimidin-7-one], for which the half-maximal inhibitory concentration (IC50) amounted to 0.647 µM.

On to `COC1(c2cc3c(N[C@H](C)c4nccc(C(F)F)c4F)ncnc3n(C)c2=O)CCN(C(C)=O)CC1` [Example 62, 6-(1-acetyl-4-methoxy-4-piperidyl)-4-[[(1R)-1-[4-(difluoromethyl)-3-fluoro-2-pyridyl]ethyl]amino]-8-methyl-pyrido[2,3-d]pyrimidin-7-one], for which the IC50 was 0.262 µM.

For `C[C@@H](Nc1ncnc2c1cc(C1=CCS(=O)(=O)CC1)c(=O)n2C)c1cccc(C(F)F)c1CC#N` [Example 63, 2-[2-(difluoromethyl)-6-[(1R)-1-[[6-(1,1-dioxo-3,6-dihydro-2H-thiopyran-4-yl)-8-methyl-7-oxo-pyrido[2,3-d]pyrimidin-4-yl]amino]ethyl]phenyl]acetonitrile], the IC50 is more than 10 µM.

For the molecule `C[C@@H](Nc1ncnc2c1cc(C1CCS(=N)(=O)CC1)c(=O)n2C)c1cccc(C(F)F)c1F` (stereo partly drawn) [Example 67, 4-[[(1R)-1-[3-(difluoromethyl)-2-fluoro-phenyl]ethyl]amino]-6-(1-imino-1-oxo-thian-4-yl)-8-methyl-pyrido[2,3-d]pyrimidin-7-one], the half-maximal inhibitory concentration (IC50) worked out at 0.0161 µM.

With `COC1(c2cc3c(N[C@H](C)c4cccc(C(F)F)c4F)ncnc3n(C)c2=O)CCC2(CC1)CS(=O)(=NC1CC1)C2` (stereo partly drawn) [Example 68-1], the IC50 came out at 0.0241 µM.

As to `COC1(c2cc3c(C[C@H](C)c4cccc(C(F)F)c4F)ncnc3n(C)c2=O)CC2(C1)CS(=O)(=NC1CC1)C2` (stereo partly drawn) [Example 68-2], the IC50 was 0.136 µM.

Consider `CC(=O)NC12CC(c3cc4c(N[C@H](C)c5cccc(C(F)F)c5F)ncnc4n(C)c3=O)(C1)C2` [Example 70, N-[3-(4-{[(1R)-1-[3-(difluoromethyl)-2-fluorophenyl]ethyl]amino}-8-methyl-7-oxo-7H,8H-pyrido[2,3-d]pyrimidin-6-yl)bicyclo[1.1.1]pentan-1-yl]acetamide], for which the IC50 was found to be 0.121 µM.

Take `COC1(c2cc3c(N[C@H](C)c4ccnc(C(F)F)c4F)ncnc3n(C)c2=O)CCN(C(C)=O)CC1` [Example 71, 6-(1-acetyl-4-methoxy-4-piperidyl)-4-[[(1R)-1-[2-(difluoromethyl)-3-fluoro-4-pyridyl]ethyl]amino]-8-methyl-pyrido-[2,3-d]pyrimidin-7-one]: the IC50 was determined as 0.528 µM.

The same test, now with this note: PC-9 cells (EGFR Ex19Del), 1 hour incubation, AlphaLISA SureFire Ultra p-ERK1/2; read-out: SOS1 pERK IC50.
As to `CN=S1(=O)CCC(F)(c2cc3c(N[C@H](C)c4cccc(C(F)F)c4F)ncnc3n(C)c2=O)CC1` (stereo partly drawn) [Example 52, 4-(((R)-1-(3-(difluoromethyl)-2-fluorophenyl)ethyl)amino)-6-((1R,4r)-4-fluoro-1-(methylimino)-1-oxidohexahydro-1λ-thiopyran-4-yl)-8-methylpyrido[2,3-d]pyrimidin-7(8H)-one], the 50% inhibitory concentration (IC50) was 0.0706 µM.

Regarding `C[C@@H](Nc1ncnc2c1cc(C1(F)CCS(=O)(=NC3CC3)CC1)c(=O)n2C)c1cccc2c1OCC2(F)F` (stereo partly drawn) [Example 56-5], the half-inhibitory concentration (IC50) is 0.0441 µM.

Regarding `C[C@@H](Nc1ncnc2c1cc(C1(C#N)CCS(=O)(=NC3CC3)CC1)c(=O)n2C)c1cccc(C(F)F)c1F` (stereo partly drawn) [Example 59, (1S,4s)-1-(cyclopropylimino)-4-(4-(((R)-1-(3-(difluoromethyl)-2-fluorophenyl)ethyl)amino)-8-methyl-7-oxo-7,8-dihydropyrido[2,3-d]pyrimidin-6-yl)hexahydro-1λ^6-thiopyran-4-carbonitrile 1-oxide], the IC50 was determined as 0.0288 µM.

Turning to `C[C@@H](Nc1ncnc2c1cc(C1=CCS(=O)(=NC3COC3)CC1)c(=O)n2C)c1cccc(C(F)F)c1F` (stereo partly drawn) [Example 65, 4-(((R)-1-(3-(difluoromethyl)-2-fluorophenyl)ethyl)amino)-8-methyl-6-((S)-1-(oxetan-3-ylimino)-1-oxido-1,2,3,6-tetrahydro-1λ^6-thiopyran-4-yl)pyrido[2,3-d]pyrimidin-7(8H)-one], the IC50 is 0.0668 µM.

Turning to `C[C@@H](Nc1ncnc2c1cc(C1=CCS(=O)(=NC3COC3)CC1)c(=O)n2C)c1cccc(C(F)F)c1F` (stereo partly drawn) [Example 66, 4-(((R)-1-(3-(difluoromethyl)-2-fluorophenyl)ethyl)amino)-8-methyl-6-((R)-1-(oxetan-3-ylimino)-1-oxido-1,2,3,6-tetrahydro-1λ^6-thiopyran-4-yl)pyrido[2,3-d]pyrimidin-7(8H)-one], the IC50 is 0.0291 µM.

Regarding `COC1(c2cc3c(C[C@H](C)c4cccc(C(F)F)c4F)ncnc3n(C)c2=O)CC2(C1)CS(=O)(=NC1CC1)C2` (stereo partly drawn) [Example 68-3], the half-inhibitory concentration (IC50) was determined as 0.1 µM.

A further test has as its target SOS1 nucleotide exchange of wild-type KRAS (Homo sapiens (Human), UniProt Q07889). As to the kind of experiment: Mode of action assay: inhibition of SOS1 nucleotide exchange activity (TR-FRET). The class given is biochemical. The settings on record: SOS1 catalytic domain (564-1049), avi-tagged KRAS (1-169), EDA-GTP-DY-647P1; three replicates.
Take `Cc1nc(N[C@H](C)c2cccc(C(F)F)c2F)c2cc(N3CC(F)(F)C3)c(=O)n(C)c2n1` [Example 2-2]: the IC50 came out at 2.08 µM.

In turn, `C[C@@H](Nc1ncnc2c1cc(C1CCN(CCF)CC1)c(=O)n2C)c1cccc(C(F)F)c1F` [Example 8-4] registered an IC50 of 0.00766 µM.

Molecule `C[C@@H](Nc1ncnc2c1cc(C1CCS(=O)(=O)CC1)c(=O)n2C)c1cccc(C(F)F)c1F` [Example 8-5] displayed an IC50 of 0.0128 µM.

`COc1ccc(Cc2cc3c(N[C@H](C)c4cccc(C(F)F)c4F)nc(C)nc3n(C)c2=O)cc1OC` [Example 20-1] had an IC50 of 6.17 µM.

Regarding `COc1cccc(Cc2cc3c(N[C@H](C)c4cccc(C(F)F)c4F)nc(C)nc3n(C)c2=O)c1OC` [Example 20], the IC50 is more than 20 µM.

Molecule `C[C@@H](Nc1ncnc2c1cc(C(=O)N1CC3CC1CO3)c(=O)n2C)c1cccc(C(F)F)c1F` (stereo partly drawn) [Example 26-6] registered an IC50 of more than 20 µM.

On to `COC1(c2cc3c(N[C@H](C)c4cccc(C(F)F)c4F)nc(C)nc3n(C)c2=O)CCN(C(C)=O)CC1` [Example 32-32], for which the IC50 is 0.00477 µM.
